One assay concerns the target PI3K-alpha (Homo sapiens, UniProt P42336). Briefly: PI3K-alpha fluorescence polarization assay. In kind it is biochemical. Conditions: read-out: PI3Kα Avg. IC50. (In general: Polarisation of emitted light reports the rotation of a fluorescent probe.)
The target in another assay is PI3K-gamma (Homo sapiens, UniProt P48736). Nature of the assay: PI3K-gamma fluorescence polarization assay. In kind it is biochemical. The following applies: PI3Kγ Avg. IC50. As for the experimental part: PI3K-Alpha, PI3K-Beta, PI3K-Gamma, and PI3K-delta Fluorescence Polarization Assay Protocols
Sequence of PI3K-gamma (P48736 whole entry, species assumed): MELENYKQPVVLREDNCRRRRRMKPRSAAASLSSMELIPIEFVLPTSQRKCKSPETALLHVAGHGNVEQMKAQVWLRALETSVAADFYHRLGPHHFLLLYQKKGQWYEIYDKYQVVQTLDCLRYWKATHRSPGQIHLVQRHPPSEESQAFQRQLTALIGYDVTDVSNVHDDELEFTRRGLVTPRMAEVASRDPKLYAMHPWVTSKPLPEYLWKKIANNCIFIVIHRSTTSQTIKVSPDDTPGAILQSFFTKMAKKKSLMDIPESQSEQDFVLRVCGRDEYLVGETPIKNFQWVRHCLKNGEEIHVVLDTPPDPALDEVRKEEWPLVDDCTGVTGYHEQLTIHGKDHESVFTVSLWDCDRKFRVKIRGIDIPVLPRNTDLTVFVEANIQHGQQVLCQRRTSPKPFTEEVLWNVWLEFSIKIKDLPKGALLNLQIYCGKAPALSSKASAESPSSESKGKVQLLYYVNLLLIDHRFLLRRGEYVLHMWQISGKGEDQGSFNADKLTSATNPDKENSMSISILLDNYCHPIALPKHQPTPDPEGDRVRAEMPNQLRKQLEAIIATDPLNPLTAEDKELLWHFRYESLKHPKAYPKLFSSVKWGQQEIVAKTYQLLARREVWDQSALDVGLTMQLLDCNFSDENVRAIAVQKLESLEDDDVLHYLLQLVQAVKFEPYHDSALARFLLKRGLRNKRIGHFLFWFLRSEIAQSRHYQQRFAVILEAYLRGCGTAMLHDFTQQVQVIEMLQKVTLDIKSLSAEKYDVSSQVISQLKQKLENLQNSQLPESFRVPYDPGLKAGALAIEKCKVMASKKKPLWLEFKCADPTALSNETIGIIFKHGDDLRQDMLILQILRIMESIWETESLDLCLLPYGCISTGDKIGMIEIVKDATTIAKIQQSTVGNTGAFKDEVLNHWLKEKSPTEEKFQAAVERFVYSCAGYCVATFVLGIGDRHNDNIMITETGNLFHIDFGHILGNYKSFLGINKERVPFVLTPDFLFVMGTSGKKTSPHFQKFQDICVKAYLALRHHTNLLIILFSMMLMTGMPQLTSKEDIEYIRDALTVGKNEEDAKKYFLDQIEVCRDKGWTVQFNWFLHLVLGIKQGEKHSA
PI3-Kinase reactions were performed in 5 mM HEPES, pH 7, 2.5 mM MgCl2, and 25 μM ATP, with diC8-PI(4,5)P2 (Echelon, Salt Lake City Utah) as substrate. Nunc 384-well black polypropylene fluorescent plates were used for PI3K assays. Reactions were quenched by the addition of EDTA to a final concentration of 10 mM. Final reaction volumes were 10 μl. For evaluation of PI3K inhibitors, 5 ng of enzyme (PI3K-alpha, beta, gamma, or delta) and 2.5 μM of substrate was used per […] reaction volume, and inhibitor concentrations ranged from 100 μM to 20 μM; the final level of DMSO in reactions never exceeded 2%. Reactions were allowed to proceed for one hour at 25° C. After 1 hour, GST-tagged GRP1 (general receptor for phosphoinositides) PH domain fusion protein was added to a final concentration of 100 nM, and BODIPY-TMRI(1,3,4,5)P4 (Echelon) was also added to a final concentration of 5 nM. Final sample volumes were 25 μl with a final DMSO concentration of 0.8%. Assay Plates were read on Perkin-Elmer Envision plate readers with appropriate filters for Tamra [BODIPY-TMRI(1,3,4,5)P4]. Data obtained were used to calculate enzymatic activity and enzyme inhibition by inhibitor compounds.

As a reminder, the IC50 is the midpoint of a concentration-inhibition curve.

Sequence of PI3K-alpha (P42336 whole entry, species assumed): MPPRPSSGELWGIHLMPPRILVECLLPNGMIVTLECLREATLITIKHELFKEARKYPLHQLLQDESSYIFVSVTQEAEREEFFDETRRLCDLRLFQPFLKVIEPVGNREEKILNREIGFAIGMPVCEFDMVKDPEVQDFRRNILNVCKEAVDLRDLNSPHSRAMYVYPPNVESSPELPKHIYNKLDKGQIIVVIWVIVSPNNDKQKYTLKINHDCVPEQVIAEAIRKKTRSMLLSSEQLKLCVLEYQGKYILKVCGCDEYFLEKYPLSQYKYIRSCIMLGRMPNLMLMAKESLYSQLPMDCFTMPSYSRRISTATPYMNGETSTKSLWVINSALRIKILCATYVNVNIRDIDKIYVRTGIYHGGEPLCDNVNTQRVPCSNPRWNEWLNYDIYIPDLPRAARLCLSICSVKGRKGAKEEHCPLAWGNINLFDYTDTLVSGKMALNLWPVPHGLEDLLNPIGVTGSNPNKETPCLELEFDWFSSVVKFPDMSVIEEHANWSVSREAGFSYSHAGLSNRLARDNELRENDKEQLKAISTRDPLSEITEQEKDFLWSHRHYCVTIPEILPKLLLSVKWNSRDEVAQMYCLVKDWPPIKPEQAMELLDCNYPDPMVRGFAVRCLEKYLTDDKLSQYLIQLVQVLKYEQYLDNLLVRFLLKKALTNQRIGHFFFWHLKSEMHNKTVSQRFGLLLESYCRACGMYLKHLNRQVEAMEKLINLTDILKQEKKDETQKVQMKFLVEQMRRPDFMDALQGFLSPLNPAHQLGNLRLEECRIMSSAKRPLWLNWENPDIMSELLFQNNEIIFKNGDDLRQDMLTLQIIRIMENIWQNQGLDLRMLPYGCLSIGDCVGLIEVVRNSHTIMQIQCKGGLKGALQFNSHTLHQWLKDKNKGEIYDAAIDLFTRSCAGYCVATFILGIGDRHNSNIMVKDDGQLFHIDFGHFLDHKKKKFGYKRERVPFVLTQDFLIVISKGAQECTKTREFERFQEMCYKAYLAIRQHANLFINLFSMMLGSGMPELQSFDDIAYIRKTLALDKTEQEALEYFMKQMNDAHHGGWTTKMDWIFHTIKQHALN
Sequence of PI3K-alpha (P27986 whole entry partner, species assumed): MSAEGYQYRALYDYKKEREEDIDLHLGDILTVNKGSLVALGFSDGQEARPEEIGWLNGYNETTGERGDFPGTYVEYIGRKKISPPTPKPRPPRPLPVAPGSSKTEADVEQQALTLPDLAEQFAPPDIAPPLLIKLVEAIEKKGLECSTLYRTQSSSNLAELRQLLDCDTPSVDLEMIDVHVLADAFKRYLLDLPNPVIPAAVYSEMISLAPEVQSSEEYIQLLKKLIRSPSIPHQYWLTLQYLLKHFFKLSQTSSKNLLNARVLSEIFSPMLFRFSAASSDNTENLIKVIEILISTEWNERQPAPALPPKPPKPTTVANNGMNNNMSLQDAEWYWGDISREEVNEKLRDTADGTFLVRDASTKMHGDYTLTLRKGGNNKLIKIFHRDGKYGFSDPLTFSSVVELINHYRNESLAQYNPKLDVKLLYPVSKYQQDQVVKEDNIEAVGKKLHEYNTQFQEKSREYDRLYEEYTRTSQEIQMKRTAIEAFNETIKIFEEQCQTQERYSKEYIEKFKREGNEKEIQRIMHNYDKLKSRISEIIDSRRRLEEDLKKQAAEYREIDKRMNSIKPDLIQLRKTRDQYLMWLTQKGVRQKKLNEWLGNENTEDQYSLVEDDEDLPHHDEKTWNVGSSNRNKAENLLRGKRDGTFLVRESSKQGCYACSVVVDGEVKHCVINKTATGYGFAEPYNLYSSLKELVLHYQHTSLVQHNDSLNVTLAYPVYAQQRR

In the case of `COc1ccc2[nH]cc(/C=C3\Oc4ccc(NC(=O)Nc5ccc(N(C)C)cc5)cc4C3=O)c2c1` [Compound 492, 1-[4-(dimethylamino)phenyl]-3-{(2Z)-2-[(5-methoxy-1H-indol-3-yl)methylene]-3-oxo-2,3-dihydro-1-benzofuran-5-yl}urea], the results for the IC50 at PI3K-alpha and against PI3K-gamma were 656 nM and greater than 10000 nM, respectively.

Take `CCc1c(/C=C2\Oc3cc(O)cc(O)c3C2=O)c2cc(OC)ccc2n1CCCC#N` [Compound 493, 4-{3-[(Z)-(4,6-dihydroxy-3-oxo-1-benzofuran-2(3H)-ylidene)methyl]-2-ethyl-5-methoxy-1H-indol-1-yl}butanenitrile]: the IC50 came out at 3 nM at PI3K-alpha and 15.5 nM at PI3K-gamma.

Turning to `COc1ccc2[nH]cc(C=C3Oc4cc(OS(=O)(=O)C(F)(F)F)ccc4C3=O)c2c1` [Compound 494, 2-[(5-methoxy-1H-indol-3-yl)methylene]-3-oxo-2,3-dihydro-1-benzofuran-6-yl trifluoromethanesulfonate], the results for the IC50 on PI3K-alpha and against PI3K-gamma were greater than 10000 nM and 9350 nM, respectively.

As for `COc1ccc2[nH]cc(C=C3Oc4cc(C(N)=O)ccc4C3=O)c2c1` [Compound 495, 2-[(5-methoxy-1H-indol-3-yl)methylene]-3-oxo-2,3-dihydro-1-benzofuran-6-carboxamide], the IC50 on PI3K-alpha and against PI3K-gamma was greater than 10000 nM in each case.

In the case of `Cn1cc(/C=C2\Oc3cc(O)cc(O)c3C2=O)c2c(N3CCOCC3)cccc21` [Compound 496, (2Z)-4,6-dihydroxy-2-[(1-methyl-4-morpholin-4-yl-1H-indol-3-yl)methylene]-1-benzofuran-3(2H)-one], the IC50 at PI3K-alpha amounted to 1040 nM; on PI3K-gamma it was 4770 nM.

For `COc1cccc2c1c(/C=C1\Oc3cc(O)cc(O)c3C1=O)c(-c1ccccc1)n2C` [Compound 497, (2Z)-4,6-dihydroxy-2-[(4-methoxy-1-methyl-2-phenyl-1H-indol-3-yl)methylene]-1-benzofuran-3(2H)-one], the values for the half-inhibitory concentration (IC50) on PI3K-alpha and against PI3K-gamma were 963 nM and 1210 nM, respectively.

With `COc1cc(-c2cncnc2)c2[nH]cc(/C=C3\Oc4cc(O)ccc4C3=O)c2c1` [Compound 498, (2Z)-6-hydroxy-2-[(5-methoxy-7-pyrimidin-5-yl-1H-indol-3-yl)methylene]-1-benzofuran-3(2H)-one], the values for the IC50 on PI3K-alpha and against PI3K-gamma were 63.5 nM and 392 nM, respectively.

`Cn1c(-c2ccccc2)c(/C=C2\Oc3cc(O)cc(O)c3C2=O)c2c([N+](=O)[O-])cccc21` [Compound 499, (2Z)-4,6-dihydroxy-2-[(1-methyl-4-nitro-2-phenyl-1H-indol-3-yl)methylene]-1-benzofuran-3(2H)-one]: the 50% inhibitory concentration (IC50) at PI3K-alpha came to 342 nM; against PI3K-gamma, 3560 nM.

For the compound `COc1cc(-c2cncnc2)c2c(c1)c(/C=C1\Oc3cc(O)ccc3C1=O)cn2CCCC#N` [Compound 501, 4-{3-[(Z)-(6-hydroxy-3-oxo-1-benzofuran-2(3H)-ylidene)methyl]-5-methoxy-7-pyrimidin-5-yl-1H-indol-1-yl}butanenitrile], the IC50 on PI3K-alpha came to 701 nM; at PI3K-gamma, 7000 nM.

For the compound `COc1cc(-c2cccnc2)c2c(c1)c(/C=C1\Oc3cc(O)ccc3C1=O)cn2CCCC#N` [Compound 502, 4-{3-[(Z)-(6-hydroxy-3-oxo-1-benzofuran-2(3H)-ylidene)methyl]-5-methoxy-7-pyridin-3-yl-1H-indol-1-yl}butanenitrile], the IC50 at PI3K-alpha stood at 592 nM; against PI3K-gamma, 4160 nM.

`COc1cc(-c2cncnc2)c2c(c1)c(/C=C1\Oc3cc(O)cc(O)c3C1=O)cn2CCCC#N` [Compound 503, 4-{3-[(Z)-(4,6-dihydroxy-3-oxo-1-benzofuran-2(3H)-ylidene)methyl]-5-methoxy-7-pyrimidin-5-yl-1H-indol-1-yl}butanenitrile]: the IC50 at PI3K-alpha amounted to 106 nM; against PI3K-gamma it was 811 nM.

`COc1ccc2[nH]cc(C=C3Oc4cc(O)cc(-c5ccccc5)c4C3=O)c2c1` [Compound 504, 6-hydroxy-2-[(5-methoxy-1H-indol-3-yl)methylene]-4-phenyl-1-benzofuran-3(2H)-one]: the IC50 is 122 nM on PI3K-alpha and 541 nM against PI3K-gamma.

In the case of `COc1ccc2[nH]cc(C=C3Oc4cc(O)cc(Br)c4C3=O)c2c1` [Compound 505, 4-bromo-6-hydroxy-2-[(5-methoxy-1H-indol-3-yl)methylene]-1-benzofuran-3(2H)-one], the values for the IC50 on PI3K-alpha and against PI3K-gamma were 120 nM and 813 nM, respectively.

`CCc1cc(O)cc2c1C(=O)C(=Cc1c[nH]c3ccc(OC)cc13)O2` [Compound 506, 4-ethyl-6-hydroxy-2-[(5-methoxy-1H-indol-3-yl)methylene]-1-benzofuran-3(2H)-one]: the IC50 on PI3K-alpha was 133 nM; on PI3K-gamma, 1510 nM.

Consider `COc1ccc2c(c1)c(/C=C1\Oc3cc(O)cc(C)c3C1=O)cn2C` [Compound 507, (2Z)-6-hydroxy-2-[(5-methoxy-1-methyl-1H-indol-3-yl)methylene]-4-methyl-1-benzofuran-3(2H)-one], for which the IC50 came out at 78.5 nM on PI3K-alpha and 1540 nM at PI3K-gamma.

Turning to `COc1ccc2[nH]cc(/C=C3\Oc4cc(C#N)ccc4C3=O)c2c1` [Compound 508, (2Z)-2-[(5-methoxy-1H-indol-3-yl)methylene]-3-oxo-2,3-dihydro-1-benzofuran-6-carbonitrile], the IC50 on PI3K-alpha was 8500 nM; on PI3K-gamma it was greater than 10000 nM.

`COc1ccc2[nH]cc(/C=C3\Oc4cc(-c5nn[nH]n5)ccc4C3=O)c2c1` [Compound 509, (2Z)-2-[(5-methoxy-1H-indol-3-yl)methylene]-6-(2H-tetrazol-5-yl)-1-benzofuran-3(2H)-one]: the IC50 worked out at 484 nM at PI3K-alpha and 2470 nM at PI3K-gamma.

Take `COc1ccc2c(c1)c(/C=C1\Oc3cc(O)cc(O)c3C1=O)cn2CCCC#N` [Compound 510, 4-{3-[(Z)-(4,6-dihydroxy-3-oxo-1-benzofuran-2(3H)-ylidene)methyl]-5-methoxy-1Hindol-1-yl}butanenitrile]: the IC50 at PI3K-alpha is 8 nM; against PI3K-gamma, 56 nM.

As for `COc1ccc2c(c1)c(/C=C1\Oc3cc(O)ccc3C1=O)cn2CCCC#N` [Compound 511, 4-{3-[(Z)-(6-hydroxy-3-oxo-1-benzofuran-2(3H)-ylidene)methyl]-5-methoxy-1Hindol-1-yl}butanenitrile], the concentration for half-maximal inhibition (IC50) was found to be 21 nM on PI3K-alpha and 154 nM at PI3K-gamma.

As for `CCc1cc(OC)cc2c(/C=C3\Oc4cc(O)cc(O)c4C3=O)cn(CCN3CCN(C)CC3)c12` [Compound 512, (2Z)-2-({7-ethyl-5-methoxy-1-[2-(4-methylpiperazin-1-yl)ethyl]-1H-indol-3-yl}methylene)-4,6-dihydroxy-1-benzofuran-3(2H)-one], the IC50 at PI3K-alpha was 36.5 nM; on PI3K-gamma, 1400 nM.

Regarding `CNC(=O)c1cc(O)cc2c1C(=O)/C(=C/c1c[nH]c3ccc(OC)cc13)O2` [Compound 513, (2Z)-6-hydroxy-2-[(5-methoxy-1H-indol-3-yl)methylene]-N-methyl-3-oxo-2,3-dihydro-1-benzofuran-4-carboxamide], the IC50 is 1540 nM on PI3K-alpha and greater than 10000 nM against PI3K-gamma.

On to `COc1ccc2c(c1)c(/C=C1\Oc3ccc(O)cc3C1=O)cn2CCCC#N` [Compound 514, 4-{3-[(Z)-(5-hydroxy-3-oxo-1-benzofuran-2(3H)-ylidene)methyl]-5-methoxy-1Hindol-1-yl}butanenitrile], for which the IC50 on PI3K-alpha came out at 1380 nM; against PI3K-gamma it was 4100 nM.
